Experimental data as given in article PMC6704710, “Preclinical evaluation of 3D185, a novel potent inhibitor of FGFR1/2/3 and CSF-1R, in FGFR-dependent and macrophage-dominant cancer models” (Journal of Experimental & Clinical Cancer Research : CR, 2019).

What was measured:
Test in all cases: Eurofins kinase panel
Type in all cases: biochemical
Conditions in all cases: read-out: Inhibition rate (%)
[1] = biological target: T1, ATM(h) (Homo sapiens, UniProt Q13315)
T1 construct: purchased Eurofins (KinaseProfiler)

[2] = biological target: T2, CaMKIγ(h) (Homo sapiens, UniProt Q96NX5)
T2 construct: purchased Eurofins (KinaseProfiler)

[3] = biological target: T3, Fms(Y969C)(h) (Homo sapiens, UniProt P07333, Y969C)
T3 construct: purchased Eurofins (KinaseProfiler)

[4] = biological target: T4, LKB1(h) (Homo sapiens, UniProt Q15831)
T4 construct: purchased Eurofins (KinaseProfiler)
T4 sequence (Q15831 1-433): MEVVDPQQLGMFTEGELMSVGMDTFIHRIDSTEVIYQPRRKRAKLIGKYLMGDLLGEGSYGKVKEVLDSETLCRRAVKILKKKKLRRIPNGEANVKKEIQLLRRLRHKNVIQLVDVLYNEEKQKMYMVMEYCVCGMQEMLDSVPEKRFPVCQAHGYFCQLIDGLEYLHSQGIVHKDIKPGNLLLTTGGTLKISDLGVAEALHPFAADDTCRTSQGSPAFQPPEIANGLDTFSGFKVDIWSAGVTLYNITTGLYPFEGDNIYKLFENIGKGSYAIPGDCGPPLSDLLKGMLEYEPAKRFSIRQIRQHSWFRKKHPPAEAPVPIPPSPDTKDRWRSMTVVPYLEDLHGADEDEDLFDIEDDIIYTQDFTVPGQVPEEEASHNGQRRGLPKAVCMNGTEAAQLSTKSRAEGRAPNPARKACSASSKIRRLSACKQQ
T4 sequence (Q7RTN6 1-431 partner): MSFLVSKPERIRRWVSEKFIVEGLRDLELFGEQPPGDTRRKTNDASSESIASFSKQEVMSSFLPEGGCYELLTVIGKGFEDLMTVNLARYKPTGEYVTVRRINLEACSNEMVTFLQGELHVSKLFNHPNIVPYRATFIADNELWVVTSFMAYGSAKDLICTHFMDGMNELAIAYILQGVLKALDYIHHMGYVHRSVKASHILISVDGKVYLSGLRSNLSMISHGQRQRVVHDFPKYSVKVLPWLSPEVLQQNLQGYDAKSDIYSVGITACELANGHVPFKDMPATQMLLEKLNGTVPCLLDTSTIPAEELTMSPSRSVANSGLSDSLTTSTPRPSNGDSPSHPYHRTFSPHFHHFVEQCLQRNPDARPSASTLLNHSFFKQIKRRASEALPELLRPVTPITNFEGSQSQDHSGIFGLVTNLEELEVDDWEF
T4 sequence (Q9Y376 1-341 partner): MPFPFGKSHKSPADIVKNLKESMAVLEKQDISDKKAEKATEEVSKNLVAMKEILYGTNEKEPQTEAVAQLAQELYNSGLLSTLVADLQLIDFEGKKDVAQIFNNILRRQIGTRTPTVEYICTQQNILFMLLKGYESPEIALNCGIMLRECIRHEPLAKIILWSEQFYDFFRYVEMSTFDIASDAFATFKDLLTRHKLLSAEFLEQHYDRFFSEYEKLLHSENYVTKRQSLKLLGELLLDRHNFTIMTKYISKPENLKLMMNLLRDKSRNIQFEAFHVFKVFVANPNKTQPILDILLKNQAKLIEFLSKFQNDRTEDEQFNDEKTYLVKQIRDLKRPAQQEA

[5] = biological target: T5, JAK3(h) (Homo sapiens, UniProt P52333)
T5 construct: purchased Eurofins (KinaseProfiler)
T5 sequence (P52333 1-1124): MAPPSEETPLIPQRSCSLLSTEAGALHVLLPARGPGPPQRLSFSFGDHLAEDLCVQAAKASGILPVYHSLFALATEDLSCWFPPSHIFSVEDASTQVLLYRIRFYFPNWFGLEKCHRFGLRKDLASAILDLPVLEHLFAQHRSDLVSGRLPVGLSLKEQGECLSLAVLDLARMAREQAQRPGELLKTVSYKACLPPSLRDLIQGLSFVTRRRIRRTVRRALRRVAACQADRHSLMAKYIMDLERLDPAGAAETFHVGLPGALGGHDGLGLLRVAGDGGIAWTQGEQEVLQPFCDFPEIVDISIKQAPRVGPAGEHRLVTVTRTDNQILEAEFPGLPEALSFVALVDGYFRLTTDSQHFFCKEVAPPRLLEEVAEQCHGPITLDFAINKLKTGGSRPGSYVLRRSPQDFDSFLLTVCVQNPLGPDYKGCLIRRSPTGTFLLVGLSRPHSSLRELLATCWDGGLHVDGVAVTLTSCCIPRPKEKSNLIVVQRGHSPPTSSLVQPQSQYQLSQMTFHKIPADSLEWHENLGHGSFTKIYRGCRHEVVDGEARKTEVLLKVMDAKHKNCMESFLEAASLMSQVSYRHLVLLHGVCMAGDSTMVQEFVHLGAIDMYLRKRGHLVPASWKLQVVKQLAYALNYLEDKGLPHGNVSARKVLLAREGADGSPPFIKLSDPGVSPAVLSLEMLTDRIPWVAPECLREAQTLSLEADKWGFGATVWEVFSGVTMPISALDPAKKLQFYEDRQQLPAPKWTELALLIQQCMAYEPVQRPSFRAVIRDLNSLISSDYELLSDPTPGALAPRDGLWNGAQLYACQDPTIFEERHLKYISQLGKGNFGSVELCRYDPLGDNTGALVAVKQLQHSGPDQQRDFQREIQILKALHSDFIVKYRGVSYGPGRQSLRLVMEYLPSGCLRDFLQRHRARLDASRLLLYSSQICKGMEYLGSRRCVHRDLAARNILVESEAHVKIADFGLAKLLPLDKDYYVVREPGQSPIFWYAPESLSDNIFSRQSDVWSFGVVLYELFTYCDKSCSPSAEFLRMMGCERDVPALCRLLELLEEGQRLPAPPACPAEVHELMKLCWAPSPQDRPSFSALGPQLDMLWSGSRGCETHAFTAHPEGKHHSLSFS

T3 sequence (P07333 20-972 Y969C): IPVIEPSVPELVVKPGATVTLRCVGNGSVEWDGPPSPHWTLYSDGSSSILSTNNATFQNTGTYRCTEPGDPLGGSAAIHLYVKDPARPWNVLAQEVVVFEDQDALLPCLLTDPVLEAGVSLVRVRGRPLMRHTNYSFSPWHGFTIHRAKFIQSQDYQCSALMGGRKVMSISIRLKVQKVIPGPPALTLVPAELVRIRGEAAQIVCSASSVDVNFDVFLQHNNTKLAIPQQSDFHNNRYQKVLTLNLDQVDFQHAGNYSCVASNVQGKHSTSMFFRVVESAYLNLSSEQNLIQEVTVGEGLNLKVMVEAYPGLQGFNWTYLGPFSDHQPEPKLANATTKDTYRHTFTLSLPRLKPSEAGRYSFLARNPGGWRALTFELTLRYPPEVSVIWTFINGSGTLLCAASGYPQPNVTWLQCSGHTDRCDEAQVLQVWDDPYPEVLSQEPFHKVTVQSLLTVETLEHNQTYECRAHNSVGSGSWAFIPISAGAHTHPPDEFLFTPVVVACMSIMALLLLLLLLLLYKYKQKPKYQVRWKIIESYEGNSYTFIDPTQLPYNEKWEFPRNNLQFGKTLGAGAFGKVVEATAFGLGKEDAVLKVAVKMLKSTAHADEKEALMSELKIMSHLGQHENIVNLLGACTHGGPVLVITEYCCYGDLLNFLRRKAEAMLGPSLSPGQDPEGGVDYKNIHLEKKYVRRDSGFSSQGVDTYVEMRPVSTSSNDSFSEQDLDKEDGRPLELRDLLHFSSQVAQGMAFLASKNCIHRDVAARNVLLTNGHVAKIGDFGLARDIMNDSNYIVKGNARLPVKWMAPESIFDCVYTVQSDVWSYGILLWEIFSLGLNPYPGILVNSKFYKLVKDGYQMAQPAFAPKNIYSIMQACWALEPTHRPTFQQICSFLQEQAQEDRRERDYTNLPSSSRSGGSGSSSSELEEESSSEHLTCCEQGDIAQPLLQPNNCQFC
T1 sequence (Q13315 whole entry): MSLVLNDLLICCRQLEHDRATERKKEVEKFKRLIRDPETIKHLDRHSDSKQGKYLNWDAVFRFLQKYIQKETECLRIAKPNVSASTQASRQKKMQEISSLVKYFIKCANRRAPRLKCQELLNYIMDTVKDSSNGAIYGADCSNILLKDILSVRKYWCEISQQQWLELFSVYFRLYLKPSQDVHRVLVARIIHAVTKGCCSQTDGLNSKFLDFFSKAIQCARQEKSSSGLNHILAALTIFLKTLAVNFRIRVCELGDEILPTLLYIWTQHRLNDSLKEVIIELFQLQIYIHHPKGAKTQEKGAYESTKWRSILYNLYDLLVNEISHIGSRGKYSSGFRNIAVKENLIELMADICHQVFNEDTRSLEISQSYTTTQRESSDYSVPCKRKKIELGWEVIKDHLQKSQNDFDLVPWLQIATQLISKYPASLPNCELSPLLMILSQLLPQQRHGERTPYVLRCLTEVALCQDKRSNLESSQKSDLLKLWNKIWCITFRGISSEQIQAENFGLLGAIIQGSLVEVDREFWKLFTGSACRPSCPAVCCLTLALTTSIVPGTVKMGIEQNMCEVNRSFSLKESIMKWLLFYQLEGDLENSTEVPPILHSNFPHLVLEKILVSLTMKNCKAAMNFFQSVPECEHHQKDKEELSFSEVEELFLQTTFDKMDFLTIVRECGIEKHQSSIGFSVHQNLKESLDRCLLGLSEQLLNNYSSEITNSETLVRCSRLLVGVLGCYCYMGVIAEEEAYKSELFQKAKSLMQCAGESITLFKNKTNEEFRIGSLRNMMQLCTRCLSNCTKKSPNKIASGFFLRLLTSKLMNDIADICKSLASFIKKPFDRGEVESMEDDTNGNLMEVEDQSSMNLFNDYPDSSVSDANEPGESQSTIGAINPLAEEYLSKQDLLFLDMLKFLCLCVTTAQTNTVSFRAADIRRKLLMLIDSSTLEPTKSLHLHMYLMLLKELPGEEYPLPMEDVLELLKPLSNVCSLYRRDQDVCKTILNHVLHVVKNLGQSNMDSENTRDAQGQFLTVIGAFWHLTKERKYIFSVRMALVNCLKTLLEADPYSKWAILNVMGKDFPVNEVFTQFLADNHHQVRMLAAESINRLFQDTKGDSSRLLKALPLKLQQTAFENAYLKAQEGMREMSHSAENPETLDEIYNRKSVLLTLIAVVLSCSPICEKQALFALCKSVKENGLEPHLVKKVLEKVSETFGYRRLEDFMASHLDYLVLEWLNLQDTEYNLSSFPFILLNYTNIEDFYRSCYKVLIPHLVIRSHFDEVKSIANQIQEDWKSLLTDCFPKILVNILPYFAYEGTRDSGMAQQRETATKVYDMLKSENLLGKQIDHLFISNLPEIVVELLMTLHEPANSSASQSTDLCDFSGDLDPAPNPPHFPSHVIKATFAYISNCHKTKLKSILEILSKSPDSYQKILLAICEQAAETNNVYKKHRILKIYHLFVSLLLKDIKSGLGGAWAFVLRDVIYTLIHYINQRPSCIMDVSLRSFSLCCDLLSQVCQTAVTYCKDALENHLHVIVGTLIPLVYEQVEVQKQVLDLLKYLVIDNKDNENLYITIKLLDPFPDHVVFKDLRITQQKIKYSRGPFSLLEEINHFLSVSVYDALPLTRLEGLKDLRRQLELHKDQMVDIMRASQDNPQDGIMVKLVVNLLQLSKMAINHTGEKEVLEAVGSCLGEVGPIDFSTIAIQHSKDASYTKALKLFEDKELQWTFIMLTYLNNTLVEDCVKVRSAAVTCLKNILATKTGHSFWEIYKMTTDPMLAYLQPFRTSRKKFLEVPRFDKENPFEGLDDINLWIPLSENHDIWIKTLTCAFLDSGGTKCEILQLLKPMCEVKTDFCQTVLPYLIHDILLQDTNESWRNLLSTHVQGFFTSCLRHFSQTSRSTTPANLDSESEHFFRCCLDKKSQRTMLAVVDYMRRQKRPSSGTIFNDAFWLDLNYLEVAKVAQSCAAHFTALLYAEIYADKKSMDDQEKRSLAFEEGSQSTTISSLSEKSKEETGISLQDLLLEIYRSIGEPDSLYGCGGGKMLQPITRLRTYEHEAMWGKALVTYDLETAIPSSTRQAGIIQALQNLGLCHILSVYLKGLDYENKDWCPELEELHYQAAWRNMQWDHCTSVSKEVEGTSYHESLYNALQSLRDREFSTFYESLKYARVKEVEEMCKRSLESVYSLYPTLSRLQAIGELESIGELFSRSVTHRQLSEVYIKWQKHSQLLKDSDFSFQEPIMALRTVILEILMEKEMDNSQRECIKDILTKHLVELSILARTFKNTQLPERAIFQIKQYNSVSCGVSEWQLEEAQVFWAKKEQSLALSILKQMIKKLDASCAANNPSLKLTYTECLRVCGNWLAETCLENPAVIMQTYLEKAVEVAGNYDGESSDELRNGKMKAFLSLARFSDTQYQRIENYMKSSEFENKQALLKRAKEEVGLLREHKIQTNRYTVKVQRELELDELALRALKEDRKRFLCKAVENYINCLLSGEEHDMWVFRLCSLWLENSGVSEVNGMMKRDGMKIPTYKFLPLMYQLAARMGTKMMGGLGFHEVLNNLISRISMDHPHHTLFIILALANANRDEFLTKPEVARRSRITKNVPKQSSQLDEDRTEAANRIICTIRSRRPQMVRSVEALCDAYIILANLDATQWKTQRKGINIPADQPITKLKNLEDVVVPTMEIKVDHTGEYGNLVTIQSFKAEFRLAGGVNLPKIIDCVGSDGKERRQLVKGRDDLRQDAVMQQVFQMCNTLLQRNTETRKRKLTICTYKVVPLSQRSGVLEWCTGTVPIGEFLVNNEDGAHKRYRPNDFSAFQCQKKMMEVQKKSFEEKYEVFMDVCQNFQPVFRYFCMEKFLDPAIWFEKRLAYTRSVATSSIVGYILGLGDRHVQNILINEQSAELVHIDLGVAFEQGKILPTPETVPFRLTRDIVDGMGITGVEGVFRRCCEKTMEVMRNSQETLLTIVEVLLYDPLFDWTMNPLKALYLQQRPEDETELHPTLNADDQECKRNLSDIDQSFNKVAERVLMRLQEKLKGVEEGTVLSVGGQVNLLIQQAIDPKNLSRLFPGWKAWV
T2 sequence (Q96NX5 whole entry): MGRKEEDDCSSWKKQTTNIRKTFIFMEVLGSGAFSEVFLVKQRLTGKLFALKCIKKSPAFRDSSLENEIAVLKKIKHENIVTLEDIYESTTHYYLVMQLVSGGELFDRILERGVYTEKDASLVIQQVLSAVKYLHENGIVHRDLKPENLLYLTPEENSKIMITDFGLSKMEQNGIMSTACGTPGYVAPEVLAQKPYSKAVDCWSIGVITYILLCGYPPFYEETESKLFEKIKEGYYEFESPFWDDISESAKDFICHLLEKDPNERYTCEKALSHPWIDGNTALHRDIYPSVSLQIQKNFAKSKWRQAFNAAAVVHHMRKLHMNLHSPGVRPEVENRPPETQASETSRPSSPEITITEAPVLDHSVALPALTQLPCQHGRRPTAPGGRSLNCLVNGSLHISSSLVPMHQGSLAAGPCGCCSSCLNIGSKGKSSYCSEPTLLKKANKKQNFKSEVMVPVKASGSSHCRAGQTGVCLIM

COc1cc(OC)c(Cl)c(-c2ccc3c(NC(=O)c4ccc(N5CCNC(C)(C)C5)cc4)n[nH]c3n2)c1Cl [3D185]
inhibition at 0.01 µM ([1]; 10 nM): -3%
inhibition at 0.1 µM ([1]; 100 nM): -5%
inhibition at 1 µM ([1]; 1000 nM): -5%
inhibition at 0.01 µM ([2]; 10 nM): -1%
inhibition at 0.1 µM ([2]; 100 nM): 3%
inhibition at 1 µM ([2]; 1000 nM): 41%
inhibition at 0.01 µM ([3]; 10 nM): 34%
inhibition at 0.1 µM ([3]; 100 nM): 75%
inhibition at 1 µM ([3]; 1000 nM): 95%
inhibition at 0.01 µM ([4]; 10 nM): -9%
inhibition at 0.1 µM ([4]; 100 nM): 7%
inhibition at 1 µM ([4]; 1000 nM): 2%
inhibition at 0.01 µM ([5]; 10 nM): -11%
inhibition at 0.1 µM ([5]; 100 nM): 0%
inhibition at 1 µM ([5]; 1000 nM): 10%
